Source: ChEMBL document CHEMBL1145302, “Synthesis and antibacterial activity of C6-carbazate ketolides” (2006)
Values after ≈ are worked out from the molar mass of the structure shown.

Columns and labels:
Format in all cases: functional
Streptococcus pneumoniae [1] = assay: Antibacterial activity against erythromycin-susceptible Streptococcus pneumoniae OC9132
Staphylococcus aureus [2] = assay: Antibacterial activity against erythromycin-susceptible Staphylococcus aureus Smith OC4172
Staphylococcus aureus [3] = assay: Antibacterial activity against erythromycin-susceptible Staphylococcus aureus Smith OC4172 in presence of 50% mouse serum
[4] = test system: Staphylococcus haemolyticus; assay: Antibacterial activity against erythromycin resistant Staphylococcus haemolyticus OC3882 containing erm(C)
Streptococcus pneumoniae [5] = assay: Antibacterial activity against erythromycin-resistant Streptococcus pneumoniae OC4421 containing mef(A)
Staphylococcus aureus [6] = assay: Antibacterial activity against Staphylococcus aureus Smith infected in orally dosed Swiss Webster mouse septicemia model; conditions: po
Haemophilus influenzae = assay: Antibacterial activity against telithromycin-susceptible Haemophilus influenzae ATCC 49766
Streptococcus pneumoniae [7] = assay: Antibacterial activity against erythromycin-resistant Streptococcus pneumoniae OC4051 containing erm(B)
Staphylococcus aureus [8] = assay: Antibacterial activity against Staphylococcus aureus Smith infected in sc dosed Swiss Webster mouse septicemia model

| Structure (SMILES) | MIC (Streptococcus pneumoniae [1]) [µg/mL] | MIC (Staphylococcus aureus [2]) [µg/mL] | MIC (Staphylococcus aureus [3]) [µg/mL] | MIC [4] [µg/mL] | MIC (Streptococcus pneumoniae [5]) [µg/mL] | ED50 (Staphylococcus aureus [6]) [mg/kg] | MIC (Haemophilus influenzae) [µg/mL] | MIC (Streptococcus pneumoniae [7]) [µg/mL] | ED50 (Staphylococcus aureus [8]) [mg/kg] |
| --- | --- | --- | --- | --- | --- | --- | --- | --- | --- |
| CC[C@H]1OC(=O)[C@H](C)C(=O)[C@H](C)[C@@H](O[C@@H]2O[C@H](C)C[C@H](N(C)C)[C@H]2O)[C@](C)(OC(=O)NN(C)CCc2ccc(-c3ncccn3)s2)C[C@@H](C)C(=O)[C@H](C)[C@H]2NC(=O)O[C@@]21C | 0.03 (≈ 0.0349 µM) | 0.25 (≈ 0.291 µM) | 0.5 | 0.25 (≈ 0.291 µM) | 0.12 (≈ 0.14 µM) | > 20 | 2 (≈ 2.33 µM) | 0.06 (≈ 0.0698 µM) | 4.8 |
| CC[C@H]1OC(=O)[C@H](C)C(=O)[C@H](C)[C@@H](O[C@@H]2O[C@H](C)C[C@H](N(C)C)[C@H]2O)[C@](C)(OC(=O)NN(C)CCc2ccc(-c3ncccn3)cc2F)C[C@@H](C)C(=O)[C@H](C)[C@H]2NC(=O)O[C@@]21C | 0.06 (≈ 0.0689 µM) | 0.5 (≈ 0.574 µM) | 1 | 0.5 (≈ 0.574 µM) | 0.25 (≈ 0.287 µM) | > 20 | 4 (≈ 4.59 µM) | 0.06 (≈ 0.0689 µM) | 2.3 |
| CC[C@H]1OC(=O)[C@H](C)C(=O)[C@H](C)[C@@H](O[C@@H]2O[C@H](C)C[C@H](N(C)C)[C@H]2O)[C@](C)(OC(=O)N(C)NCCc2ccc(-c3cnccn3)cc2)C[C@@H](C)C(=O)[C@H](C)[C@H]2NC(=O)O[C@@]21C | 0.06 (≈ 0.0703 µM) | 0.5 (≈ 0.586 µM) | 2 | 2 (≈ 2.34 µM) | 0.5 (≈ 0.586 µM) | – | 8 (≈ 9.38 µM) | 0.12 (≈ 0.141 µM) | – |
| CC[C@H]1OC(=O)[C@H](C)C(=O)[C@H](C)[C@@H](O[C@@H]2O[C@H](C)C[C@H](N(C)C)[C@H]2O)[C@](C)(OC)C[C@@H](C)C(=O)[C@H](C)[C@H]2N(CCCCn3cnc(-c4cccnc4)c3)C(=O)O[C@]12C [TELITHROMYCIN] | 0.06 (≈ 0.0739 µM) | 0.25 (≈ 0.308 µM) | 0.5 | 0.25 (≈ 0.308 µM) | 0.12 (≈ 0.148 µM) | > 20 | 1 (≈ 1.23 µM) | 0.06 (≈ 0.0739 µM) | 4.3 |
| CC[C@H]1OC(=O)[C@H](C)C(=O)[C@H](C)[C@@H](O[C@@H]2O[C@H](C)C[C@H](N(C)C)[C@H]2O)[C@](C)(OC(=O)NN(C)C/C=C/c2ccc(-c3ncccn3)cc2)C[C@@H](C)C(=O)[C@H](C)[C@H]2NC(=O)O[C@@]21C | 0.03 (≈ 0.0347 µM) | 0.25 (≈ 0.289 µM) | 0.5 | 0.5 (≈ 0.578 µM) | 0.5 (≈ 0.578 µM) | – | 8 (≈ 9.25 µM) | 0.25 (≈ 0.289 µM) | – |
| CC[C@H]1OC(=O)[C@H](C)C(=O)[C@H](C)[C@@H](O[C@@H]2O[C@H](C)C[C@H](N(C)C)[C@H]2O)[C@](C)(OC(=O)NN(C)CCc2ccc(-c3cnccn3)cc2)C[C@@H](C)C(=O)[C@H](C)[C@H]2NC(=O)O[C@@]21C | 0.03 (≈ 0.0352 µM) | 0.25 (≈ 0.293 µM) | 0.5 | 0.5 (≈ 0.586 µM) | 0.25 (≈ 0.293 µM) | – | 2 (≈ 2.34 µM) | 0.06 (≈ 0.0703 µM) | – |
| CC[C@H]1OC(=O)[C@H](C)C(=O)[C@H](C)[C@@H](O[C@@H]2O[C@H](C)C[C@H](N(C)C)[C@H]2O)[C@](C)(OC(=O)NN(C)CCc2cnc3ccccc3c2)C[C@@H](C)C(=O)[C@H](C)[C@H]2NC(=O)O[C@@]21C | 0.06 (≈ 0.0726 µM) | 1 (≈ 1.21 µM) | 2 | 8 (≈ 9.69 µM) | 0.5 (≈ 0.605 µM) | – | 2 (≈ 2.42 µM) | 0.12 (≈ 0.145 µM) | – |
| CC[C@H]1OC(=O)[C@H](C)C(=O)[C@H](C)[C@@H](O[C@@H]2O[C@H](C)C[C@H](N(C)C)[C@H]2O)[C@](C)(OC(=O)NN(C)CCc2ccc(-c3ncccn3)cc2)C[C@@H](C)C(=O)[C@H](C)[C@H]2NC(=O)O[C@@]21C | 0.03 (≈ 0.0352 µM) | 0.25 (≈ 0.293 µM) | 0.5 | 0.5 (≈ 0.586 µM) | 0.25 (≈ 0.293 µM) | > 20 | 4 (≈ 4.69 µM) | 0.06 (≈ 0.0703 µM) | 3.3 |
| CC[C@H]1OC(=O)[C@H](C)C(=O)[C@H](C)[C@@H](O[C@@H]2O[C@H](C)C[C@H](N(C)C)[C@H]2O)[C@](C)(OC(=O)N(C)N(C)CCc2ccc(-c3cnccn3)cc2)C[C@@H](C)C(=O)[C@H](C)[C@H]2NC(=O)O[C@@]21C | 0.06 (≈ 0.0692 µM) | 2 (≈ 2.31 µM) | 4 | 8 (≈ 9.23 µM) | 0.5 (≈ 0.577 µM) | – | 16 (≈ 18.5 µM) | 0.5 (≈ 0.577 µM) | – |
| CC[C@H]1OC(=O)[C@H](C)C(=O)[C@H](C)[C@@H](O[C@@H]2O[C@H](C)C[C@H](N(C)C)[C@H]2O)[C@](C)(OC(=O)NN(C)Cc2ccc(-c3ncccn3)cc2)C[C@@H](C)C(=O)[C@H](C)[C@H]2NC(=O)O[C@@]21C | 0.06 (≈ 0.0715 µM) | 2 (≈ 2.38 µM) | 8 | 2 (≈ 2.38 µM) | 1 (≈ 1.19 µM) | – | 4 (≈ 4.77 µM) | 0.5 (≈ 0.596 µM) | – |
| CC[C@H]1OC(=O)[C@H](C)C(=O)[C@H](C)[C@@H](O[C@@H]2O[C@H](C)C[C@H](N(C)C)[C@H]2O)[C@](C)(OC(=O)NNCCc2cccc(-c3ncccn3)c2)C[C@@H](C)C(=O)[C@H](C)[C@H]2NC(=O)O[C@@]21C | 0.03 (≈ 0.0358 µM) | 0.25 (≈ 0.298 µM) | 1 | 0.25 (≈ 0.298 µM) | 0.25 (≈ 0.298 µM) | > 20 | 2 (≈ 2.38 µM) | 0.06 (≈ 0.0715 µM) | 4.3 |
| CC[C@H]1OC(=O)[C@H](C)[C@@H](O[C@H]2C[C@@](C)(OC)[C@@H](O)[C@H](C)O2)[C@H](C)[C@@H](O[C@@H]2O[C@H](C)C[C@H](N(C)C)[C@H]2O)[C@](C)(O)C[C@@H](C)C(=O)[C@H](C)[C@@H](O)[C@]1(C)O [ERYTHROMYCIN] | 0.06 (≈ 0.0818 µM) | 1 (≈ 1.36 µM) | 0.06 | > 16 | 4 (≈ 5.45 µM) | – | 8 (≈ 10.9 µM) | > 16 | – |
| CC[C@H]1OC(=O)[C@H](C)C(=O)[C@H](C)[C@@H](O[C@@H]2O[C@H](C)C[C@H](N(C)C)[C@H]2O)[C@](C)(OC(=O)NNCCc2ccc(-c3cnccn3)cc2)C[C@@H](C)C(=O)[C@H](C)[C@H]2NC(=O)O[C@@]21C | 0.03 (≈ 0.0358 µM) | 0.25 (≈ 0.298 µM) | 0.5 | 0.25 (≈ 0.298 µM) | 0.25 (≈ 0.298 µM) | – | 2 (≈ 2.38 µM) | 0.06 (≈ 0.0715 µM) | – |
| CC[C@H]1OC(=O)[C@H](C)C(=O)[C@H](C)[C@@H](O[C@@H]2O[C@H](C)C[C@H](N(C)C)[C@H]2O)[C@](C)(OC(=O)NNCCc2ccc(-c3ncccn3)cc2)C[C@@H](C)C(=O)[C@H](C)[C@H]2NC(=O)O[C@@]21C | 0.03 (≈ 0.0358 µM) | 0.25 (≈ 0.298 µM) | 0.25 | 0.25 (≈ 0.298 µM) | 0.12 (≈ 0.143 µM) | – | 4 (≈ 4.77 µM) | 0.12 (≈ 0.143 µM) | – |
| CC[C@H]1OC(=O)[C@H](C)C(=O)[C@H](C)[C@@H](O[C@@H]2O[C@H](C)C[C@H](N(C)C)[C@H]2O)[C@](C)(OC(=O)NN)C[C@@H](C)C(=O)[C@H](C)[C@H]2NC(=O)O[C@@]21C | 0.5 (≈ 0.761 µM) | 8 (≈ 12.2 µM) | 2 | 16 (≈ 24.4 µM) | 8 (≈ 12.2 µM) | – | 8 (≈ 12.2 µM) | 8 (≈ 12.2 µM) | – |
| CC[C@H]1OC(=O)[C@H](C)C(=O)[C@H](C)[C@@H](O[C@@H]2O[C@H](C)C[C@H](N(C)C)[C@H]2O)[C@](C)(OC(=O)NN(C)CCc2ccc(-c3ncco3)cc2)C[C@@H](C)C(=O)[C@H](C)[C@H]2NC(=O)O[C@@]21C | 0.03 (≈ 0.0356 µM) | 0.25 (≈ 0.297 µM) | 0.5 | 0.5 (≈ 0.594 µM) | 0.12 (≈ 0.143 µM) | – | 2 (≈ 2.38 µM) | 0.06 (≈ 0.0713 µM) | – |
| CC[C@H]1OC(=O)[C@H](C)C(=O)[C@H](C)[C@@H](O[C@@H]2O[C@H](C)C[C@H](N(C)C)[C@H]2O)[C@](C)(OC(=O)NNCCc2cnc3ccccc3c2)C[C@@H](C)C(=O)[C@H](C)[C@H]2NC(=O)O[C@@]21C | 0.03 (≈ 0.0369 µM) | 0.5 (≈ 0.616 µM) | 1 | 0.5 (≈ 0.616 µM) | 0.25 (≈ 0.308 µM) | – | 0.5 (≈ 0.616 µM) | 0.06 (≈ 0.0739 µM) | – |
| CC[C@H]1OC(=O)[C@H](C)C(=O)[C@H](C)[C@@H](O[C@@H]2O[C@H](C)C[C@H](N(C)C)[C@H]2O)[C@](C)(OC(=O)NN(CC)CCc2ccc(-c3ncccn3)cc2)C[C@@H](C)C(=O)[C@H](C)[C@H]2NC(=O)O[C@@]21C | 0.12 (≈ 0.138 µM) | 0.25 (≈ 0.288 µM) | 2 | 0.5 (≈ 0.577 µM) | 0.25 (≈ 0.288 µM) | – | 8 (≈ 9.23 µM) | 0.12 (≈ 0.138 µM) | – |
| CC[C@H]1OC(=O)[C@H](C)C(=O)[C@H](C)[C@@H](O[C@@H]2O[C@H](C)C[C@H](N(C)C)[C@H]2O)[C@](C)(OC(=O)NN(C)CCCc2ccc(-c3ncccn3)cc2)C[C@@H](C)C(=O)[C@H](C)[C@H]2NC(=O)O[C@@]21C | 0.06 (≈ 0.0692 µM) | 0.5 (≈ 0.577 µM) | 1 | 1 (≈ 1.15 µM) | 0.5 (≈ 0.577 µM) | – | 8 (≈ 9.23 µM) | 0.5 (≈ 0.577 µM) | – |
